Literature values as cited in patent US6823530B2, “Antimicrobial treatment for swimwear” (Kimberly-Clark Worldwide, Inc., priority 2000, dated 2004).

Experiments:
[1] = test system: gram negative and positive bacteria

CC1(C)C(=O)N(CO)C(=O)N1CO [DMDM Hydantoin, DMDM (dimethyl dimethyl) Hydantoin]
effectiveness against gram negative and positive bacteria [1]: highly effective
thermal stability (held above room temperature (50° Celsius) for a long period of time): does not break down
pH stability (wide pH range): stable over a wide pH range
